Assay results reported in patent US20040077540A1, “Compositions and methods for modulating physiology of epithelial junctional adhesion molecules for enhanced mucosal delivery of therapeutic compounds” (Nastech Pharmaceutical Company Inc., priority 2002, published 2004).

Test system: EpiAirway™ Cell Membrane (mucosal epithelial cell layer)
Experiment: Transepithelial electrical resistance (TER) assay in EpiAirway Cell Membrane
Assay type: cell-based
Conditions: for Average TER Value: permeabilizing peptide 1.0 mM on EpiAirway Cell Membrane, each group of lines has its own CONTROL; for TER % of Control: permeabilizing peptide 1.0 mM, control normalized to 100, decrease = increased permeability
Procedure: The EpiAirway™ system was developed by MatTek Corp (Ashland, Mass.) as a model of the pseudostratified epithelium lining the respiratory tract. The epithelial cells are grown on porous membrane-bottomed cell culture inserts at an air-liquid interface, which results in differentiation of the cells to a highly polarized morphology. The apical surface is ciliated with a microvillous ultrastructure and the epithelium produces mucus (the presence of mucin has been confirmed by immunoblotting). The inserts have a diameter of 0.875 cm, providing a surface area of 0.6 cm^2. The cells are plated onto the inserts at the factory approximately three weeks before shipping. One “kit” consists of 24 units.
A. On arrival, the units are placed onto sterile supports in 6-well microplates. Each well receives 5 mL of proprietary culture medium. This DMEM-based medium is serum free but is supplemented with epidermal growth factor and other factors. […] The 5 mL volume is just sufficient to provide contact to the bottoms of the units on their stands, but the apical surface of the epithelium is allowed to remain in direct contact with air. Sterile tweezers are used in this step and in all subsequent steps involving transfer of units to liquid-containing wells to ensure that no air is trapped between the bottoms of the units and the medium.
B. The units in their plates are maintained at 37° C. in an incubator in an atmosphere of 5% CO2 in air for 24 hours. At the end of this time the medium is replaced with fresh medium and the units are returned to the incubator for another 24 hours.
A. A “kit” of 24 EpiAirway™ units can routinely be employed for evaluating five different formulations, each of which is applied to quadruplicate wells. Each well is employed for determination of permeation kinetics (4 time points), transepithelial electrical resistance (TER), mitochondrial reductase activity as measured by MTT reduction, and cytolysis as measured by release of LDH. An additional set of wells is employed as controls, which are sham treated during determination of permeation kinetics, but are otherwise handled identically to the test sample-containing units for determinations of transepithelial resistance and viability. The determinations on the controls are routinely also made on quadruplicate units, but occasionally we have employed triplicate units for the controls and have dedicated the remaining […] units in the kit to measurements of transepithelial resistance and viability on untreated units or we have frozen and thawed the units for determinations of total LDH levels to serve as a reference for 100% cytolysis.
A. Respiratory airway epithelial cells form tight junctions in vivo as well as in vitro, and thereby restrict the flow of solutes across the tissue. These junctions confer a transepithelial resistance of several hundred ohms×cm^2 in excised airway tissues. In the MatTek EpiAirway™ units, the transepithelial electrical resistance (TER) is reported by the manufacturer to be routinely around 1000 ohms×cm^2. […] The porous membrane-bottomed units without cells, conversely, provide only minimal transmembrane resistance (approximately 5-20 ohms×cm^2).
B. Accurate determinations of TER require that the electrodes of the ohmmeter be positioned over a significant surface area above and below the membrane, and that the distance of the electrodes from the membrane be reproducibly controlled. The method for TER determination recommended by MatTek and employed for all experiments herein employs an “EVOM”™ epithelial voltohmmeter and an “ENDOHM”™ tissue resistance measurement chamber from World Precision Instruments, Inc., Sarasota, Fla.
C. The chamber is initially filled with Dulbecco's phosphate buffered saline (PBS) for at least 20 minutes prior to TER determinations in order to equilibrate the electrodes.
D. Determinations of TER are made with 1.5 mL of PBS in the chamber and 350 μL of PBS in the membrane-bottomed unit being measured. […]

Sequence | Average TER Value | TER % of Control
GSGFGSYGS [NP-5, Occludin: 1st extracellular domain] | 520 ± 134 ohms-cm^2 | 98.7%
DRGYGTSLL [NP-3, Occludin: 1st extracellular domain] | 766 ± 94 ohms-cm^2 | 145.4%
KVYDSLLALP [NP-7, Claudin-3: 1st extracellular domain] | 811 ± 87 ohms-cm^2 | 153.9%
ATHSTGITQC [NP-44, Claudin-2: 1st extracellular domain] | 464 ± 61 ohms-cm^2 | 134.1%
VVQSTGQMQC [NP-36, Claudin-3: 1st extracellular domain] | 306 ± 58 ohms-cm^2 | 67.0%
NRIVQEFYDP [NP-11, Claudin-1: 2nd extracellular domain] | 292 ± 20 ohms-cm^2 | 94.8%
KVYDSVLALS [NP-43, Claudin-5: 1st extracellular domain] | 446 ± 85 ohms-cm^2 | 128.9%
LVCYNNKIT [NP-13, JAM-1 extracellular domain] | 288 ± 51 ohms-cm^2 | 93.5%
GYGYGYGYG [NP-4, Occludin: 1st extracellular domain] | 500 ± 42 ohms-cm^2 | 94.9%
YGYGGYTDP [NP-15, Occludin: 1st extracellular domain] | 383 ± 79 ohms-cm^2 | 103.5%
KFDQGDTTR [NP-6, JAM-1 extracellular domain] | 793 ± 44 ohms-cm^2 | 150.5%
VSEEGGNSY [NP-12, JAM-1 extracellular domain] | 279 ± 27 ohms-cm^2 | 90.6%
SVTVHSSEP [NP-1, JAM-1 extracellular domain] | 606 ± 130 ohms-cm^2 | 115.0%
IVVREFYDPS [NP-14, Claudin-5: 2nd extracellular domain] | 286 ± 56 ohms-cm^2 | 92.9%
AMYEGLWMSC [NP-38, Claudin-1 1st extracellular domain] | 291 ± 89 ohms-cm^2 | 63.7%
YVGASIVTAV [NP-19, Claudin-2: 1st extracellular domain] | 374 ± 57 ohms-cm^2 | 101.1%
GEVKVKLIV [NP-9, JAM-1 extracellular domain] | 342 ± 185 ohms-cm^2 | 92.4%
FIGSNIVTSQ [NP-35, Claudin-4: 1st extracellular domain] | 298 ± 56 ohms-cm^2 | 65.2%
KVFDSLLNLS [NP-2, Claudin-1: 1st extracellular domain] | 709 ± 28 ohms-cm^2 | 134.5%
TTWLGLWMSC [NP-45, Claudin-1: 1st extracellular domain] | 456 ± 162 ohms-cm^2 | 131.8%
FLDHNIVTAQ [NP-20, Claudin-5: 1st extracellular domain] | 341 ± 31 ohms-cm^2 | 92.2%
FIGSNIITSQ [NP-37, Claudin-3: 1st extracellular domain] | 304 ± 41 ohms-cm^2 | 66.5%
VVQSTGHMQC [NP-16, Claudin-5: 1st extracellular domain] | 386 ± 44 ohms-cm^2 | 104.3%
GGSVGYPYG [NP-39, Occludin: 1st extracellular domain] | 442 ± 185 ohms-cm^2 | 127.7%
TIWEGLWMNC [NP-40, Claudin-4: 1st extracellular domain] | 457 ± 146 ohms-cm^2 | 100.0%
VSQSTGQIQC [NP-18, Claudin-1: 1st extracellular domain] | 439 ± 145 ohms-cm^2 | 118.6%
NIWEGLWMNC [NP-34, Claudin-3: 1st extracellular domain] | 297 ± 40 ohms-cm^2 | 65.0%
